Data: publication PMC9072222 (RSC Advances, 2019)

Columns and labels:
[1] = test system: db/db mice; experiment: Modified multiple IPGTTs in fasted db/db mice; assay type: in vivo, mouse; conditions: 0.1 mg kg^−1 single dose, IPGTT at 30 hours
[2] = test system: db/db mice; experiment: Hypoglycemic duration test in non-fasted db/db mice; assay type: in vivo, mouse; conditions: 0.1 mg kg^−1 s.c., n = 8
[3] = test system: db/db mice; experiment: Chronic 8 week in vivo study in db/db mice; design: species or system mouse; conditions: Liraglutide 0.1 mg kg^−1 s.c., 8 week treatment, blood
[4] = species not given; ref not given; cited from earlier work

Q: Which “glucose-lowering effect at 30 hours” value [1] does the source give for `CCCCCCCCCCCCCCCC(=O)N[C@@H](CCC(=O)NCCCC[C@H](NC(=O)[C@H](C)NC(=O)[C@H](C)NC(=O)[C@H](CCC(N)=O)NC(=O)CNC(=O)[C@H](CCC(=O)O)NC(=O)[C@H](CC(C)C)NC(=O)[C@H](Cc1ccc(O)cc1)NC(=O)[C@H](CO)NC(=O)[C@H](CO)NC(=O)[C@@H](NC(=O)[C@H](CC(=O)O)NC(=O)[C@H](CO)NC(=O)[C@@H](NC(=O)[C@H](Cc1ccccc1)NC(=O)[C@@H](NC(=O)CNC(=O)[C@H](CCC(=O)O)NC(=O)[C@H](C)NC(=O)[C@@H](N)Cc1cnc[nH]1)[C@@H](C)O)[C@@H](C)O)C(C)C)C(=O)N[C@@H](CCC(=O)O)C(=O)N[C@@H](Cc1ccccc1)C(=O)N[C@H](C(=O)N[C@@H](C)C(=O)N[C@@H](Cc1c[nH]c2ccccc12)C(=O)N[C@@H](CC(C)C)C(=O)N[C@H](C(=O)N[C@@H](CCCNC(=N)N)C(=O)NCC(=O)N[C@@H](CCCNC(=N)N)C(=O)NCC(=O)O)C(C)C)[C@@H](C)CC)C(=O)O` [Liraglutide] here?
A: The value was “almost ineffective”.

Q: What about the “glucose-lowering percentage by AUC0–96 h vs saline” value [2] of the same compound?
A: Its value is 18.9%.

Q: What about the ALT [3] of the same compound?
A: The ALT was 45.1 ± 5.1 IU L^−1.

Q: And the Cholesterol [3]?
A: Its Cholesterol is 4.1 ± 0.6 mmol/L.

Q: What about the HDL-cholesterol [3] of the same compound?
A: Its HDL-cholesterol is 2.6 ± 0.1 mmol/L.

Q: What about the LDL-cholesterol [3] of the same compound?
A: Its LDL-cholesterol is 0.8 ± 0.1 mmol/L.

Q: What about the Triglyceride [3] of the same compound?
A: Its Triglyceride is 1.1 ± 0.2 mmol/L.

Q: What about the in vivo half-life [4] of the same compound?
A: The in vivo half-life was about 8 h.
